In patent US12427212B2, “Nectin-4 binding miniproteins, conjugates and uses thereof” (Aktis Oncology, Inc., priority 2023, dated 2025):
Bridges are numbered along the chain shown (N, C = ends). [ ]: non-standard residue; d: D form. The star is where a group is joined. DOTA = O=C(O)CN1CCN(CC(=O)O)CCN(CC(=O)*)CCN(CC(=O)O)CC1; Lys(Me3) = C[N+](C)(C)CCCC[C@H](N)C(=O)O; Cit = NC(=O)NCCC[C@H](N)C(=O)O; PEG4 = NCCOCCOCCOCCOCCC(=O)O

Tested on: not listed separately
Experiment: in vivo
Details: Sprague Dawley, rat, iv
Procedure: To begin, double jugular vein-cannulated Sprague Dawley rats were dosed with bolus intravenous injections of miniproteins (0.03-0.3 mg/kg) and FITC-sinistrin. Nine blood collection timepoints were taken from 0-2 h, processed to plasma with K2 EDTA, and were frozen for subsequent bioanalysis. Plasma miniprotein concentrations were measured by LC-MS/MS. To control for inter-animal renal clearance differences, and to compare with glomerular filtration rate (GFR), the miniprotein was co-formulated with a molecular marker of GFR, FITC-sinistrin (FS) (Pill et al., 2005). Plasma FITC-sinistrin was measured fluorometrically. All unknown sample measurements were interpolated against known authentic standards spiked into normal rat plasma to calculate concentration. Finally, non-compartmental analysis was performed to estimate plasma pharmacokinetic parameters.

Compound | half-life [min]
CC[C@H](C)[C@@H]1NC(=O)[C@H](Cc2ccc(O)cc2)NC(=O)[C@H](CC(=O)O)NC(=O)[C@@H]2CSSC[C@@H](C(=O)N[C@@H](CO)C(=O)O)NC(=O)CNC(=O)[C@H](CC(C)C)NC(=O)[C@H](CC(N)=O)NC(=O)[C@H](CC(=O)O)NC(=O)[C@H](CC(C)C)NC(=O)[C@H]([C@@H](C)CC)NC(=O)[C@H](CCC(=O)O)NC(=O)[C@H](CCC(=O)O)NC(=O)[C@H]([C@@H](C)CC)NC(=O)[C@H](CSSC[C@H](NC(=O)CCOCCOCCOCCOCCNC(=O)CN3CCN(CC(=O)O)CCN(CC(=O)O)CCN(CC(=O)O)CC3)C(=O)N[C@@H](CCC(=O)O)C(=O)N[C@@H](Cc3ccc(O)cc3)C(=O)N[C@@H](CC(=O)O)C(=O)N[C@@H](CCC(=O)O)C(=O)N[C@@H](CCC(N)=O)C(=O)N[C@@H](Cc3ccccc3)C(=O)N[C@@H](Cc3ccccc3)C(=O)N[C@@H]([C@@H](C)O)C(=O)N[C@@H](C)C(=O)N[C@@H](CC(C)C)C(=O)N[C@@H](CCCCN)C(=O)N[C@@H](CCCNC(=N)N)C(=O)N[C@@H](CC(C)C)C(=O)N[C@@H](CCCNC(=N)N)C(=O)NCC(=O)N[C@@H](CC(=O)O)C(=O)N[C@@H](CC(=O)O)C(=O)N[C@@H]([C@@H](C)CC)C(=O)N2)NC(=O)[C@H](CC(C)C)NC(=O)CNC(=O)[C@@H]2CCCN2C(=O)[C@H](CC(C)C)NC(=O)[C@H](Cc2ccc(O)cc2)NC(=O)[C@H](CCC(N)=O)NC(=O)[C@H](Cc2ccccc2)NC(=O)[C@H](CO)NC(=O)[C@H](C)NC(=O)[C@H](CCC(N)=O)NC1=O [Compound C237] | 28.4
{DOTA-PEG4}-CEYDEQFFTALKALRGGDICYYIQASFNYLPDLCIEEILDNLGCS-OH (disulfide 1-34, 20-44 (inferred)) [Compound C114] | 25.5
{DOTA-PEG4}-CEYDEEFFTALARLRGGDICQYIQAKFQYLPGQCIEEILDNLGCS-OH (disulfide 1-34, 20-44) [Compound C242] | 29.7
{DOTA-PEG4}-CEYDEEFFTALKRLRGGDICYYIQAKFQYLPKLCIEEILDNLGCS-OH (disulfide 1-34, 20-44) [Compound C118] | 19.7
CC[C@H](C)[C@@H]1NC(=O)[C@H](Cc2ccc(O)cc2)NC(=O)[C@H](CCC(=O)O)NC(=O)[C@@H]2CSSC[C@@H](C(=O)N[C@@H](CO)C(=O)O)NC(=O)CNC(=O)[C@H](CC(C)C)NC(=O)[C@H](CC(N)=O)NC(=O)[C@H](CC(=O)O)NC(=O)[C@H](CC(C)C)NC(=O)[C@H]([C@@H](C)CC)NC(=O)[C@H](CCC(=O)O)NC(=O)[C@H](CCC(=O)O)NC(=O)[C@H]([C@@H](C)CC)NC(=O)[C@H](CSSC[C@H](NC(=O)CCOCCOCCOCCOCCNC(=O)CN3CCN(CC(=O)O)CCN(CC(=O)O)CCN(CC(=O)O)CC3)C(=O)N[C@@H](CC(=O)O)C(=O)N[C@@H](Cc3ccc(O)cc3)C(=O)N[C@@H](CC(=O)O)C(=O)N[C@@H](CCC(=O)O)C(=O)N[C@@H](CCC(N)=O)C(=O)N[C@@H](Cc3ccccc3)C(=O)N[C@@H](Cc3ccccc3)C(=O)N[C@@H]([C@@H](C)O)C(=O)N[C@@H](C)C(=O)N[C@@H](CC(C)C)C(=O)N[C@@H](CCCCN)C(=O)N[C@@H](CCCNC(=N)N)C(=O)N[C@@H](CC(C)C)C(=O)N[C@@H](CCCNC(=N)N)C(=O)NCC(=O)N[C@@H](C)C(=O)N[C@@H](CC(=O)O)C(=O)N[C@@H]([C@@H](C)CC)C(=O)N2)NC(=O)[C@H](CCC(=O)O)NC(=O)CNC(=O)[C@@H]2CCCN2C(=O)[C@H](CC(C)C)NC(=O)[C@H](Cc2ccc(O)cc2)NC(=O)[C@H](CCC(N)=O)NC(=O)[C@H](Cc2ccccc2)NC(=O)[C@H](CO)NC(=O)[C@H](C)NC(=O)[C@H](CCC(N)=O)NC1=O [Compound C270] | 28.3
{DOTA-PEG4}-CDYDEQFFTALA[Cit]LRGGDICEYIQA[Lys(Me3)]FQYLPGLCIEEILDNLGCS-OH (disulfide 1-34, 20-44 (inferred)) [Compound C261] | 28.7

Tested on: un-transfected HEK293 cells
Experiment: Background binding to un-transfected HEK293 cells (cell microarray suitability)
Type: cell-based, human
Details: biotin-labeled molecules
Procedure: To evaluate potential off-target binding, six biotin-labeled molecules were tested in a cell microarray platform having 6,416 different human proteins spanning diverse functions and subcellular locations.

Compound | Background binding to un-transfected HEK293 cells
CC[C@H](C)[C@@H]1NC(=O)[C@H](Cc2ccc(O)cc2)NC(=O)[C@H](CC(=O)O)NC(=O)[C@@H]2CSSC[C@@H](C(=O)N[C@@H](CO)C(=O)O)NC(=O)CNC(=O)[C@H](CC(C)C)NC(=O)[C@H](CC(N)=O)NC(=O)[C@H](CC(=O)O)NC(=O)[C@H](CC(C)C)NC(=O)[C@H]([C@@H](C)CC)NC(=O)[C@H](CCC(=O)O)NC(=O)[C@H](CCC(=O)O)NC(=O)[C@H]([C@@H](C)CC)NC(=O)[C@H](CSSC[C@H](NC(=O)CCOCCOCCOCCOCCNC(=O)CCCC[C@@H]3SC[C@@H]4NC(=O)N[C@@H]43)C(=O)N[C@@H](CCC(=O)O)C(=O)N[C@@H](Cc3ccc(O)cc3)C(=O)N[C@@H](CC(=O)O)C(=O)N[C@@H](CCC(=O)O)C(=O)N[C@@H](CCC(N)=O)C(=O)N[C@@H](Cc3ccccc3)C(=O)N[C@@H](Cc3ccccc3)C(=O)N[C@@H]([C@@H](C)O)C(=O)N[C@@H](C)C(=O)N[C@@H](CC(C)C)C(=O)N[C@@H](CCCCN)C(=O)N[C@@H](CCCNC(=N)N)C(=O)N[C@@H](CC(C)C)C(=O)N[C@@H](CCCNC(=N)N)C(=O)NCC(=O)N[C@@H](CC(=O)O)C(=O)N[C@@H](CC(=O)O)C(=O)N[C@@H]([C@@H](C)CC)C(=O)N2)NC(=O)[C@H](CC(C)C)NC(=O)CNC(=O)[C@@H]2CCCN2C(=O)[C@H](CC(C)C)NC(=O)[C@H](Cc2ccc(O)cc2)NC(=O)[C@H](CCC(N)=O)NC(=O)[C@H](Cc2ccccc2)NC(=O)[C@H](CO)NC(=O)[C@H](C)NC(=O)[C@H](CCC(N)=O)NC1=O [Compound C197] | low-background binding
CC[C@H](C)[C@@H]1NC(=O)[C@H](Cc2ccc(O)cc2)NC(=O)[C@H](CCC(=O)O)NC(=O)[C@@H]2CSSC[C@@H](C(=O)N[C@@H](CO)C(=O)O)NC(=O)CNC(=O)[C@H](CC(C)C)NC(=O)[C@H](CC(N)=O)NC(=O)[C@H](CC(=O)O)NC(=O)[C@H](CC(C)C)NC(=O)[C@H]([C@@H](C)CC)NC(=O)[C@H](CCC(=O)O)NC(=O)[C@H](CCC(=O)O)NC(=O)[C@H]([C@@H](C)CC)NC(=O)[C@H](CSSC[C@H](NC(=O)CCOCCOCCOCCOCCNC(=O)CCCC[C@@H]3SC[C@@H]4NC(=O)N[C@@H]43)C(=O)N[C@@H](CC(=O)O)C(=O)N[C@@H](Cc3ccc(O)cc3)C(=O)N[C@@H](CC(=O)O)C(=O)N[C@@H](CCC(=O)O)C(=O)N[C@@H](CCC(N)=O)C(=O)N[C@@H](Cc3ccccc3)C(=O)N[C@@H](Cc3ccccc3)C(=O)N[C@@H]([C@@H](C)O)C(=O)N[C@@H](C)C(=O)N[C@@H](CC(C)C)C(=O)N[C@@H](C)C(=O)N[C@@H](CCCNC(=N)N)C(=O)N[C@@H](CC(C)C)C(=O)N[C@@H](CCCNC(=N)N)C(=O)NCC(=O)N[C@@H](C)C(=O)N[C@@H](CC(=O)O)C(=O)N[C@@H]([C@@H](C)CC)C(=O)N2)NC(=O)[C@H](CCC(=O)O)NC(=O)CNC(=O)[C@@H]2CCCN2C(=O)[C@H](CC(C)C)NC(=O)[C@H](Cc2ccc(O)cc2)NC(=O)[C@H](CCC(N)=O)NC(=O)[C@H](Cc2ccccc2)NC(=O)[C@H](CO)NC(=O)[C@H](C)NC(=O)[C@H](CCC(N)=O)NC1=O [Compound C247] | low-background binding
